# Assay results taken from publication PMC3140810 (International Journal of Women's Health, 2011).
# Biological target: CYP3A4 (Homo sapiens, UniProt P08684)
# Experiment: LC-MS/MS of 1-hydroxymidazolam, human liver microsomes
# Type: biochemical
# Chain of CYP3A4 (P08684 2-503): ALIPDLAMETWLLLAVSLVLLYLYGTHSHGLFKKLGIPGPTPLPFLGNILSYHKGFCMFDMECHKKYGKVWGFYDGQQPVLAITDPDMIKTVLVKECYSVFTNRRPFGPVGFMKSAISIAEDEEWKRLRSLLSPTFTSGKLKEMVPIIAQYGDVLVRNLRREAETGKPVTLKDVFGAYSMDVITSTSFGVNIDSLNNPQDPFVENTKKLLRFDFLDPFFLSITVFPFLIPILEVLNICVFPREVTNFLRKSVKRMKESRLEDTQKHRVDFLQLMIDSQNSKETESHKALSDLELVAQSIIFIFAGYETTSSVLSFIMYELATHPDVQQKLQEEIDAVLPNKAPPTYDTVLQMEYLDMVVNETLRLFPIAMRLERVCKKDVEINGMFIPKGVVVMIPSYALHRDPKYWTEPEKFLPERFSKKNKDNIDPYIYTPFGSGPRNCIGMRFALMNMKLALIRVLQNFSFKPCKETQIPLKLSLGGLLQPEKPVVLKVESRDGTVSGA
structure (smiles),measurement,value
O=c1c(-c2ccc(O)cc2)coc2cc(O)cc(O)c12 [genistein],Liver microsome inhibition genistein (25 μM),19%
